# From US20120238520A1, “Novel Medical Use” (priority 2009, published 2012)
# Where a name gives a salt, the structure may show the parent alone.
# What was measured:
# Assay type in all cases: in vivo, rat
# [1] = system: live E. coli-instilled rats; assay: Live E. coli DH5α (biological injury) model of sepsis-induced acute lung injury in anesthetized, ventilated rats; details: rats 3 h after intratracheal live E. coli DH5α, vs E. coli alone
# Protocol: The preparation of anesthetized, ventilated rats was used to carry out the below described examples. […]
# To evaluate the effect of live E. coli (biological injury; a model of sepsis-induced acute lung injury), E. coli (serotype DH5α at the concentration of 10^8 cfu/ml was given intratracheally (FIG. 2). Rats were surgically prepared (anesthetized, tracheotomized, outfitted with a carotid artery catheter, and connected to a ventilator). The rats were ventilated for a 30 min baseline of stable blood gases. An instillation catheter was passed to rest just above the bronchial carina and 1 ml/kg body wt of the solution containing 10^8 cfu/ml E. coli DH5α was rapidly instilled into the lungs. The vascular tracer (FITC-labeled albumin) was given after 15 min stabilization time and the 5% albumin solution with and without (2R,3R,4S,5R)-2-(6-amino-2-{[(1S)-2-hydroxy-1-(phenylmethyl)ethyl]amino}-9H-purin-9-yl)-5-(2-ethyl-2H-tetrazol-5-yl)tetrahydro-3,4-furandiol maleate was instilled 2 h later into the distal airspaces of the lung. Blood was sampled for fluorescence and arterial blood gas measurements every 30 min throughout the experiment. […] Alveolar fluid clearance, extravascular lung water, and endothelial-epithelial barrier leak were determined.
# LPS-instilled rats = assay: LPS (endotoxin, biochemical injury) model of sepsis-induced acute lung injury in anesthetized, ventilated rats; details: rats 16 h after intratracheal LPS 5 mg/kg body wt, vs LPS alone
# Source text: The preparation of anesthetized, ventilated rats was used to carry out the below described examples. Techniques of the below described examples have been published (Frank J A, Gutierrez J A, Jones K D, et al.: Low tidal volume reduces epithelial and endothelial injury in acid-injured rat lungs. Am. J. Respir. Crit. Care Med. 165:242-249, 2002; Folkesson H G, Nitenberg G, Oliver B L, et al.: Upregulation of alveolar epithelial fluid transport after subacute lung injury in rats from bleomycin. Am. J. Physiol. 275:L478-490, 1998; Folkesson H G, Norlin A, Wang Y, et al., Dexamethasone and thyroid hormone pretreatment upregulate alveolar epithelial fluid clearance in adult rats. J. Appl. Physiol. 88: 416-424, 2000; and Norlin A, Lu L N, Guggino S E, et al., Contribution of amiloride-insensitive pathways to alveolar fluid clearance in adult rats. J. Appl. Physiol. 90: 1489-1496, 2001). […]
# To evaluate the effect of endotoxin (biochemical injury; a model of sepsis-induced acute lung injury), E. coli LPS at the concentration of 5 mg/kg body wt was given intratracheally (FIG. 1, top panel illustrates the time scheme used for LPS treatments). […] Blood was sampled for fluorescence and arterial blood gas measurements every 30 min throughout the experiment. […] Alveolar fluid clearance, extravascular lung water, and endothelial-epithelial barrier leak were determined.
# rats = assay: Test solution instilled into airspaces of anesthetized, ventilated rats without injury-inducing agent; details: compound by itself, 10^−4 M in 5% albumin instilled into airspaces, any experimental group
# Source text: (§1) The preparation of anesthetized, ventilated rats was used to carry out the below described examples. Techniques of the below described examples have been published (Frank J A, Gutierrez J A, Jones K D, et al.: Low tidal volume reduces epithelial and endothelial injury in acid-injured rat lungs. Am. J. Respir. Crit. Care Med. 165:242-249, 2002; Folkesson H G, Nitenberg G, Oliver B L, et al.: Upregulation of alveolar epithelial fluid transport after subacute lung injury in rats from bleomycin. Am. J. Physiol. 275:L478-490, 1998; Folkesson H G, Norlin A, Wang Y, et al., Dexamethasone and thyroid hormone pretreatment upregulate alveolar epithelial fluid clearance in adult rats. J. Appl. Physiol. 88: 416-424, 2000; and Norlin A, Lu L N, Guggino S E, et al., Contribution of amiloride-insensitive pathways to alveolar fluid clearance in adult rats. J. Appl. Physiol. 90: 1489-1496, 2001).
# The methods used are published in the above given references. A test solution of 5% albumin with and without […] (2R,3R,4S,5R)-2-(6-amino-2-{[(1S)-2-hydroxy-1-(phenylmethyl)ethyl]amino}-9H-purin-9-yl)-5-(2-ethyl-2H-tetrazol-5-yl)tetrahydro-3,4-furandiol maleate dissolved in 0.9% NaCl was used and instilled into the airspaces of rats to measure alveolar fluid clearance with and without the injury-inducing agent (HCl, LPS, or E. coil, see below for details). […]
# HCl-instilled rats = assay: HCl (acid aspiration, chemical injury) model of acute lung injury in anesthetized, ventilated rats; details: rats 2 h after intratracheal HCl pH 1.5, vs HCl alone
# Source text: as §1
# The methods used are published in the above given references. […]
# To evaluate the effect of HCl (chemical injury; a model of aspiration-induced acute lung injury), HCl at pH 1.5 was used (FIG. 1, bottom panel illustrates the time scheme used for HCl treatments). […] Blood was sampled for fluorescence and arterial blood gas measurements every 30 min throughout the experiment. […]
compound,measurement,setting,value
"CCn1nnc([C@H]2O[C@@H](n3cnc4c(N)nc(N[C@H](CO)Cc5ccccc5)nc43)[C@H](O)[C@@H]2O)n1 [(2R,3R,4S,5R)-2-(6-amino-2-{[(1S)-2-hydroxy-1-(phenylmethyl)ethyl]amino}-9H-purin-9-yl)-5-(2-ethyl-2H-tetrazol-5-yl)tetrahydro-3,4-furandiol maleate]",EVLW (extravascular lung water),"[1]; 10^−4 M compound in 5% albumin instilled into airspaces, FIG. 3 right",a reduction in EVLW was observed
same,ELW (excess lung water) reduced by,"[1]; 10^−4 M compound instilled, FIG. 4 right",~40%
same,EVLW (extravascular lung water),"LPS-instilled rats; 10^−4 M compound in 5% albumin instilled into airspaces, FIG. 3 center",a reduction in EVLW was observed
same,ELW (excess lung water) reduced by,"LPS-instilled rats; 10^−4 M compound instilled, FIG. 4 center",~40%
same,edema formation measured as increased EVLW (extravascular lung water),rats,believed not to result in edema formation
same,EVLW (extravascular lung water),"HCl-instilled rats; 10^−4 M compound in 5% albumin instilled into airspaces, FIG. 3 left","a reduction in EVLW was observed, albeit EVLW remained elevated"
same,ELW (excess lung water) reduced by,"HCl-instilled rats; 10^−4 M compound instilled, ELW remained elevated compared to control, FIG. 4 left",~20%
